# In ChEMBL document CHEMBL5346973 (J Med Chem, 2023):
# Where a SMILES comes first, the peptide text is derived from it.
# Biological target: Nicotinic acetylcholine receptor alpha9/alpha10 (Rattus norvegicus, UniProt P43144+Q9JLB5)
# Assay: Antagonist activity at rat alpha9alpha10 nACh receptor expressed in Xenopus oocyte assessed as inhibition of acetylcholine-induced response at -70 mV holding potential by voltage-clamp based electrophysiological assay
# Format: cell-based
# Nicotinic acetylcholine receptor alpha9/alpha10, sequence (P43144 whole entry): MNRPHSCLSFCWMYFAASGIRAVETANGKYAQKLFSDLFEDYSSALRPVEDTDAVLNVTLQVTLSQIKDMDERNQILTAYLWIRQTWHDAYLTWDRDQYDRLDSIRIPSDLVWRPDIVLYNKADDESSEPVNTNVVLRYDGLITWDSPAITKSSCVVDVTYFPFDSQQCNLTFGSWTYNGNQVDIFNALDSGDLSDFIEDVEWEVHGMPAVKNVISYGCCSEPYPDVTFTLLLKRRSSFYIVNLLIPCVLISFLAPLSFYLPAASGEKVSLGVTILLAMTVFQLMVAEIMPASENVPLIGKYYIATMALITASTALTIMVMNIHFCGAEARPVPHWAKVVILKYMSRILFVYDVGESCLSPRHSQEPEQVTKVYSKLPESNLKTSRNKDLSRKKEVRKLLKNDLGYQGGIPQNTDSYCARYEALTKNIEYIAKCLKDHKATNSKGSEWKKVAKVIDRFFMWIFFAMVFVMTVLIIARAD
# Nicotinic acetylcholine receptor alpha9/alpha10, sequence (Q9JLB5 whole entry): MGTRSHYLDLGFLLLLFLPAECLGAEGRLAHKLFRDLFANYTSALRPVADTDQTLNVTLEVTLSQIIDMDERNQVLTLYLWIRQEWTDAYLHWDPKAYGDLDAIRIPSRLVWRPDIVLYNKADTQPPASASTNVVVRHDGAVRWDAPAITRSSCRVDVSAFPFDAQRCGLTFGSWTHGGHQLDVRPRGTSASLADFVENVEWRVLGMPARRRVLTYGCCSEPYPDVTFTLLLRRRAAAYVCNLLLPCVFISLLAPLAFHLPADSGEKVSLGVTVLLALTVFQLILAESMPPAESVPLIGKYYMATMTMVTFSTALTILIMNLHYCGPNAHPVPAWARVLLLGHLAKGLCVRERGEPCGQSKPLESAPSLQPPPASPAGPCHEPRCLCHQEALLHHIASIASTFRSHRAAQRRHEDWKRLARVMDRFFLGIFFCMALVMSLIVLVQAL
row,Compound,IC50 [nM]
1,CC[C@H](C)[C@@H]1NC(=O)[C@H](CCCNC(=N)N)NC(=O)[C@H](CCCNC(=N)N)NC(=O)[C@@H](NC(=O)[C@H](Cc2ccc(O)cc2)NC(=O)[C@H](CCCNC(=N)N)NC(=O)[C@H](C)NC(=O)[C@H](CCCNC(=N)N)NC(=O)[C@H](C)NC(=O)[C@H](CC(=O)O)NC(=O)[C@H](Cc2ccc(O)cc2)NC(=O)[C@@H]2CCCN2C(=O)[C@H](CO)NC(=O)[C@H](CCCNC(=N)N)NC(=O)[C@@H]2CSSC[C@H](NC(=O)[C@@H](N)[C@@H](C)O)C(=O)N[C@@H](CCCNC(=N)N)C(=O)N[C@@H](CO)C(=O)N[C@@H](CO)C(=O)NCC(=O)N[C@@H](CCCNC(=N)N)C(=O)N[C@@H](Cc3ccc(O)cc3)C(=O)N2)CSSC[C@@H](C(=O)N[C@H](C(=O)O)C(C)C)NC(=O)[C@H](C)NC(=O)[C@H](CC(=O)O)NC(=O)[C@H]([C@@H](C)O)NC1=O,230
2,"CC[C@H](C)[C@@H]1NC(=O)[C@H](CCCNC(=N)N)NC(=O)[C@H](CCCNC(=N)N)NC(=O)[C@@H](NC(=O)[C@H](Cc2ccc(O)cc2)NC(=O)[C@H](CCCNC(=N)N)NC(=O)[C@H](CCCNC(=N)N)NC(=O)[C@H](CCCNC(=N)N)NC(=O)[C@H](CCCNC(=N)N)NC(=O)[C@H](CC(=O)O)NC(=O)[C@H](Cc2ccc(O)cc2)NC(=O)[C@@H]2CCCN2C(=O)[C@H](CO)NC(=O)[C@H](C)NC(=O)[C@@H]2CSSC[C@H](NC(=O)[C@@H](N)[C@@H](C)O)C(=O)N[C@@H](C)C(=O)N[C@@H](CO)C(=O)N[C@@H](CO)C(=O)NCC(=O)N[C@@H](CCCNC(=N)N)C(=O)N[C@@H](Cc3ccc(O)cc3)C(=O)N2)CSSC[C@@H](C(=O)N[C@H](C(=O)O)C(C)C)NC(=O)[C@H](C)NC(=O)[C@H](CC(=O)O)NC(=O)[C@H]([C@@H](C)O)NC1=O (HELM PEPTIDE1{T.C.A.S.S.G.R.Y.C.A.S.P.Y.D.R.R.R.R.Y.C.R.R.I.T.D.A.C.V}$PEPTIDE1,PEPTIDE1,2:R3-9:R3|PEPTIDE1,PEPTIDE1,20:R3-27:R3$$$V2.0)",590
3,CC[C@H](C)[C@@H]1NC(=O)[C@H](C)NC(=O)[C@H](C)NC(=O)[C@@H](NC(=O)[C@H](Cc2ccc(O)cc2)NC(=O)[C@H](CCCNC(=N)N)NC(=O)[C@H](CCCNC(=N)N)NC(=O)[C@H](CCCNC(=N)N)NC(=O)[C@H](CCCNC(=N)N)NC(=O)[C@H](CC(=O)O)NC(=O)[C@H](Cc2ccc(O)cc2)NC(=O)[C@@H]2CCCN2C(=O)[C@H](CO)NC(=O)[C@H](CCCNC(=N)N)NC(=O)[C@@H]2CSSC[C@H](NC(=O)[C@@H](N)[C@@H](C)O)C(=O)N[C@@H](CCCNC(=N)N)C(=O)N[C@@H](CO)C(=O)N[C@@H](CO)C(=O)NCC(=O)N[C@@H](CCCNC(=N)N)C(=O)N[C@@H](Cc3ccc(O)cc3)C(=O)N2)CSSC[C@@H](C(=O)N[C@H](C(=O)O)C(C)C)NC(=O)[C@H](C)NC(=O)[C@H](CC(=O)O)NC(=O)[C@H]([C@@H](C)O)NC1=O,180
4,CC[C@H](C)[C@@H]1NC(=O)[C@H](CCCNC(=N)N)NC(=O)[C@H](CCCNC(=N)N)NC(=O)[C@@H](NC(=O)[C@H](Cc2ccc(O)cc2)NC(=O)[C@H](C)NC(=O)[C@H](CCCNC(=N)N)NC(=O)[C@H](C)NC(=O)[C@H](CCCNC(=N)N)NC(=O)[C@H](CC(=O)O)NC(=O)[C@H](Cc2ccc(O)cc2)NC(=O)[C@@H]2CCCN2C(=O)[C@H](CO)NC(=O)[C@H](CCCNC(=N)N)NC(=O)[C@@H]2CSSC[C@H](NC(=O)[C@@H](N)[C@@H](C)O)C(=O)N[C@@H](CCCNC(=N)N)C(=O)N[C@@H](CO)C(=O)N[C@@H](CO)C(=O)NCC(=O)N[C@@H](CCCNC(=N)N)C(=O)N[C@@H](Cc3ccc(O)cc3)C(=O)N2)CSSC[C@@H](C(=O)N[C@H](C(=O)O)C(C)C)NC(=O)[C@H](C)NC(=O)[C@H](CC(=O)O)NC(=O)[C@H]([C@@H](C)O)NC1=O,410
5,CC[C@H](C)[C@@H]1NC(=O)[C@H](CCCNC(=N)N)NC(=O)[C@H](CCCNC(=N)N)NC(=O)[C@@H](NC(=O)[C@H](Cc2ccc(O)cc2)NC(=O)[C@H](CCCNC(=N)N)NC(=O)[C@H](C)NC(=O)[C@H](C)NC(=O)[C@H](CCCNC(=N)N)NC(=O)[C@H](CC(=O)O)NC(=O)[C@H](Cc2ccc(O)cc2)NC(=O)[C@@H]2CCCN2C(=O)[C@H](CO)NC(=O)[C@H](CCCNC(=N)N)NC(=O)[C@@H]2CSSC[C@H](NC(=O)[C@@H](N)[C@@H](C)O)C(=O)N[C@@H](CCCNC(=N)N)C(=O)N[C@@H](CO)C(=O)N[C@@H](CO)C(=O)NCC(=O)N[C@@H](CCCNC(=N)N)C(=O)N[C@@H](Cc3ccc(O)cc3)C(=O)N2)CSSC[C@@H](C(=O)N[C@H](C(=O)O)C(C)C)NC(=O)[C@H](C)NC(=O)[C@H](CC(=O)O)NC(=O)[C@H]([C@@H](C)O)NC1=O,130
6,"CC[C@H](C)[C@@H]1NC(=O)[C@H](CCCNC(=N)N)NC(=O)[C@H](CCCNC(=N)N)NC(=O)[C@@H](NC(=O)[C@H](Cc2ccc(O)cc2)NC(=O)[C@H](CCCNC(=N)N)NC(=O)[C@H](CCCNC(=N)N)NC(=O)[C@H](CCCNC(=N)N)NC(=O)[C@H](CCCNC(=N)N)NC(=O)[C@H](CC(=O)O)NC(=O)[C@H](Cc2ccc(O)cc2)NC(=O)[C@@H]2CCCN2C(=O)[C@H](CO)NC(=O)[C@H](CCCNC(=N)N)NC(=O)[C@@H]2CSSC[C@H](NC(=O)[C@@H](N)[C@@H](C)O)C(=O)N[C@@H](C)C(=O)N[C@@H](CO)C(=O)N[C@@H](CO)C(=O)NCC(=O)N[C@@H](C)C(=O)N[C@@H](Cc3ccc(O)cc3)C(=O)N2)CSSC[C@@H](C(=O)N[C@H](C(=O)O)C(C)C)NC(=O)[C@H](C)NC(=O)[C@H](CC(=O)O)NC(=O)[C@H]([C@@H](C)O)NC1=O (HELM PEPTIDE1{T.C.A.S.S.G.A.Y.C.R.S.P.Y.D.R.R.R.R.Y.C.R.R.I.T.D.A.C.V}$PEPTIDE1,PEPTIDE1,2:R3-9:R3|PEPTIDE1,PEPTIDE1,20:R3-27:R3$$$V2.0)",370
7,CC[C@H](C)[C@@H]1NC(=O)[C@H](CCCNC(=N)N)NC(=O)[C@H](CCCNC(=N)N)NC(=O)[C@@H](NC(=O)[C@H](Cc2ccc(O)cc2)NC(=O)[C@H](CCCNC(=N)N)NC(=O)[C@H](CCCNC(=N)N)NC(=O)[C@H](C)NC(=O)[C@H](C)NC(=O)[C@H](CC(=O)O)NC(=O)[C@H](Cc2ccc(O)cc2)NC(=O)[C@@H]2CCCN2C(=O)[C@H](CO)NC(=O)[C@H](CCCNC(=N)N)NC(=O)[C@@H]2CSSC[C@H](NC(=O)[C@@H](N)[C@@H](C)O)C(=O)N[C@@H](CCCNC(=N)N)C(=O)N[C@@H](CO)C(=O)N[C@@H](CO)C(=O)NCC(=O)N[C@@H](CCCNC(=N)N)C(=O)N[C@@H](Cc3ccc(O)cc3)C(=O)N2)CSSC[C@@H](C(=O)N[C@H](C(=O)O)C(C)C)NC(=O)[C@H](C)NC(=O)[C@H](CC(=O)O)NC(=O)[C@H]([C@@H](C)O)NC1=O,260
8,"CC[C@H](C)[C@@H]1NC(=O)[C@H](CCCNC(=N)N)NC(=O)[C@H](CCCNC(=N)N)NC(=O)[C@@H](NC(=O)[C@H](Cc2ccc(O)cc2)NC(=O)[C@H](CCCNC(=N)N)NC(=O)[C@H](CCCNC(=N)N)NC(=O)[C@H](CCCNC(=N)N)NC(=O)[C@H](CCCNC(=N)N)NC(=O)[C@H](CC(=O)O)NC(=O)[C@H](Cc2ccc(O)cc2)NC(=O)[C@@H]2CCCN2C(=O)[C@H](CO)NC(=O)[C@H](C)NC(=O)[C@@H]2CSSC[C@H](NC(=O)[C@@H](N)[C@@H](C)O)C(=O)N[C@@H](CCCNC(=N)N)C(=O)N[C@@H](CO)C(=O)N[C@@H](CO)C(=O)NCC(=O)N[C@@H](C)C(=O)N[C@@H](Cc3ccc(O)cc3)C(=O)N2)CSSC[C@@H](C(=O)N[C@H](C(=O)O)C(C)C)NC(=O)[C@H](C)NC(=O)[C@H](CC(=O)O)NC(=O)[C@H]([C@@H](C)O)NC1=O (HELM PEPTIDE1{T.C.R.S.S.G.A.Y.C.A.S.P.Y.D.R.R.R.R.Y.C.R.R.I.T.D.A.C.V}$PEPTIDE1,PEPTIDE1,2:R3-9:R3|PEPTIDE1,PEPTIDE1,20:R3-27:R3$$$V2.0)",440
9,CC(C)C[C@H](NC(=O)[C@H](CCCCN)NC(=O)[C@H](CC(N)=O)NC(=O)[C@@H]1CCCN1C(=O)[C@H](CCC(N)=O)NC(=O)[C@H](C)NC(=O)CNC(=O)[C@H](CO)NC(=O)[C@H](CCCCN)NC(=O)[C@H](CCC(=O)O)NC(=O)[C@H](CC(C)C)NC(=O)[C@H](CS)NC(=O)[C@@H](CCCNC(=N)N)NC(=O)[C@@H](N)C(C)C)C(=O)N[C@@H](Cc1ccccc1)C(=O)N[C@@H](CCCNC(=N)N)C(=O)N1CCC[C@H]1C(=O)N1CCC[C@H]1C(=O)N[C@@H](CS)C(=O)N[C@@H](CS)C(=O)N[C@@H](CCC(N)=O)C(=O)N[C@@H](CCCCN)C(=O)NCC(=O)N1CCC[C@H]1C(=O)N[C@@H](CO)C(=O)N[C@@H](Cc1ccccc1)C(=O)N[C@@H](C)C(=O)N[C@@H](CCCNC(=N)N)C(=O)N[C@@H](Cc1cnc[nH]1)C(=O)N[C@@H](CO)C(=O)N[C@@H](CCCNC(=N)N)C(=O)N[C@@H](CS)C(=O)N[C@H](C(=O)N[C@@H](Cc1ccc(O)cc1)C(=O)N[C@@H](Cc1ccc(O)cc1)C(=O)N[C@H](C(=O)N[C@@H](CCC(N)=O)C(=O)N[C@@H](CO)C(=O)N[C@@H](CCCNC(=N)N)C(=O)N[C@@H](CCC(=O)O)C(=O)O)[C@@H](C)O)C(C)C,1200
10,CC[C@H](C)[C@@H]1NC(=O)[C@H](CCCNC(=N)N)NC(=O)[C@H](CCCNC(=N)N)NC(=O)[C@@H](NC(=O)[C@H](Cc2ccc(O)cc2)NC(=O)[C@H](C)NC(=O)[C@H](CCCNC(=N)N)NC(=O)[C@H](CCCNC(=N)N)NC(=O)[C@H](C)NC(=O)[C@H](CC(=O)O)NC(=O)[C@H](Cc2ccc(O)cc2)NC(=O)[C@@H]2CCCN2C(=O)[C@H](CO)NC(=O)[C@H](CCCNC(=N)N)NC(=O)[C@@H]2CSSC[C@H](NC(=O)[C@@H](N)[C@@H](C)O)C(=O)N[C@@H](CCCNC(=N)N)C(=O)N[C@@H](CO)C(=O)N[C@@H](CO)C(=O)NCC(=O)N[C@@H](CCCNC(=N)N)C(=O)N[C@@H](Cc3ccc(O)cc3)C(=O)N2)CSSC[C@@H](C(=O)N[C@H](C(=O)O)C(C)C)NC(=O)[C@H](C)NC(=O)[C@H](CC(=O)O)NC(=O)[C@H]([C@@H](C)O)NC1=O,350
11,CC[C@H](C)[C@@H]1NC(=O)[C@H](CCCNC(=N)N)NC(=O)[C@H](CCCNC(=N)N)NC(=O)[C@@H](NC(=O)[C@H](Cc2ccc(O)cc2)NC(=O)[C@H](C)NC(=O)[C@H](C)NC(=O)[C@H](CCCNC(=N)N)NC(=O)[C@H](CCCNC(=N)N)NC(=O)[C@H](CC(=O)O)NC(=O)[C@H](Cc2ccc(O)cc2)NC(=O)[C@@H]2CCCN2C(=O)[C@H](CO)NC(=O)[C@H](CCCNC(=N)N)NC(=O)[C@@H]2CSSC[C@H](NC(=O)[C@@H](N)[C@@H](C)O)C(=O)N[C@@H](CCCNC(=N)N)C(=O)N[C@@H](CO)C(=O)N[C@@H](CO)C(=O)NCC(=O)N[C@@H](CCCNC(=N)N)C(=O)N[C@@H](Cc3ccc(O)cc3)C(=O)N2)CSSC[C@@H](C(=O)N[C@H](C(=O)O)C(C)C)NC(=O)[C@H](C)NC(=O)[C@H](CC(=O)O)NC(=O)[C@H]([C@@H](C)O)NC1=O,230
